Assay results taken from patent publication US20170058314A1, “NOVEL METHODOLOGY FOR IDENTIFYING ANTI-PERSISTER ACTIVITY AND ANTIMICROBIAL SUSCEPTIBILITY FOR BORRELIA BURGDORFERI AND OTHER BACTERIA” (priority 2014, published 2017).

Columns and labels:
[1] = test system: round body form of B. burgdorferi; assay: SYBR Green I/PI assay on amoxicillin-induced round body form; conditions: for viability at 50 µM: Borreliella burgdorferi, 168 h, read-out: Residual viable cells (SYBR Green I/PI assay)
[2] = test system: stationary phase B. burgdorferi persisters (strain B31); assay: SYBR Green I/PI viability assay (plate reader), FDA-approved drug library screen; conditions: for Ratio of Green/Red fluorescence, Primary screening / Ratio of Green/Red fluorescence, Rescreening (first column) / Ratio of Green/Red fluorescence, Rescreening (second column) / Residual viable cells (regression equation, SYBR Green I/PI assay): 50 μM; for Ratio of Green/Red fluorescence, Primary screening / Ratio of Green/Red fluorescence, Rescreening (first column) / Ratio of Green/Red fluorescence, Rescreening (second column): 7 days, stationary phase; for viability at 50 µM: Borreliella burgdorferi, 168 h, read-out: Residual viable cells (regression equation, SYBR Green I/PI assay); for Residual viable cells (regression equation, SYBR Green I/PI assay): 7-day old stationary phase cells treated for 7 days

Molecule | viability at 50 µM [1] [%] | Ratios of green/red fluorescence, Primary screening ([1]; round body form, 50 μM, 7 days) | Ratios of green/red fluorescence, Rescreening (first column) ([1]; round body form, 50 μM, 7 days) | Ratios of green/red fluorescence, Rescreening (second column) ([1]; round body form, 50 μM, 7 days) | Ratio of Green/Red fluorescence, Primary screening [2] | Ratio of Green/Red fluorescence, Rescreening (first column) [2] | Ratio of Green/Red fluorescence, Rescreening (second column) [2] | viability at 50 µM [2] [%] | Residual viable cells (regression equation, SYBR Green I/PI assay) [2] [%] | Residual viable cells (SYBR Green I/PI assay) ([1]; round body form, 50 μM, 7 days) [%]
C[C@H]1COc2c(N3CCN(C)CC3)c(F)cc3c(=O)c(C(=O)O)cn1c23 [levofloxacin] | 41 |  |  |  |  |  |  |  |  | 
C=C1c2c(Cl)ccc(O)c2C(=O)C2=C(O)[C@]3(O)C(=O)C(C(N)=O)=C(O)[C@@H](N(C)C)[C@@H]3[C@@H](O)[C@H]12 [Meclocycline] | 33 | 6.52 | 6.23 | 6.09 |  |  |  |  |  | 
C=CC1=C(C(=O)O)N2C(=O)[C@@H](NC(=O)/C(=N\O)c3csc(N)n3)[C@H]2SC1 [Cefdinir] |  |  |  |  | 6.88 | 7.51 | 6.29 | 48 |  | 
COc1c(N2C[C@@H]3CCCN[C@@H]3C2)c(F)cc2c(=O)c(C(=O)O)cn(C3CC3)c12 [moxifloxacin] | 49 |  |  |  |  |  |  |  |  | 
[Bi] [Bismuth] |  |  |  |  | 6.94 | 6.82 | 6.92 |  | 48 | 
C[C@@H]1O[C@@H]1P(=O)(O)O [Fosfomycin] | 31 | 6.39 | 6.12 | 6.16 |  |  |  |  |  | 
C[C@H]1[C@H](NC(=O)/C(=N\OC(C)(C)C(=O)O)c2csc(N)n2)C(=O)N1S(=O)(=O)O [Aztreonam] | 34 | 6.16 | 6.38 | 6.33 |  |  |  |  |  | 
CN(C)[C@@H]1C(O)=C(C(=O)NCN2CCCC2)C(=O)[C@@]2(O)C(O)=C3C(=O)c4c(O)cccc4[C@@](C)(O)[C@H]3C[C@@H]12 [Rolitetracycline] | 35 | 6.23 | 6.35 | 6.37 |  |  |  |  |  | 
Nc1ccc(S(=O)(=O)O)cc1 [Sulfanilate] |  | 6.49 | 6.03 | 6.40 |  |  |  |  |  | 34
C[C@@H]1[C@H](O)[C@@H](C)/C=C/C=C/C=C/C=C/C=C/C=C/C=C/[C@H](O[C@@H]2O[C@H](C)[C@@H](O)[C@H](N)[C@@H]2O)C[C@@H]2O[C@](O)(C[C@@H](O)C[C@@H](O)[C@H](O)CC[C@@H](O)C[C@@H](O)CC(=O)O[C@H]1C)C[C@H](O)[C@H]2C(=O)O [Amphotericin B] |  |  |  |  | 7.14 | 6.88 | 6.87 |  | 50 | 
Cc1nnc(SCC2=C(C(=O)O)N3C(=O)[C@@H](NC(=O)Cn4cnnn4)[C@H]3SC2)s1 [Cefazolin] | 34 | 6.23 | 6.34 | 6.29 |  |  |  |  |  | 
Collistin |  |  |  |  | 7.15 | 7.26 | 7.23 |  |  | 
CO/N=C(\C(=O)N[C@@H]1C(=O)N2C(C(=O)[O-])=C(C[N+]3(C)CCCC3)CS[C@H]12)c1csc(N)n1 [Cefepime] |  |  |  |  | 6.67 | 7.16 | 6.45 | 44 |  | 
O=[N+]([O-])c1ccc(/C=N/O)o1 [Nifuroxime] | 30 | 6.10 | 6.32 | 6.22 |  |  |  |  |  | 
NCc1ccccc1CC(=O)N[C@@H]1C(=O)N2C(C(=O)O)=C(CSc3nnnn3CC(=O)O)CS[C@H]12 [Ceforanide] |  |  |  |  | 6.89 | 7.49 | 6.33 | 48 |  | 
CO/N=C(\C(=O)N[C@@H]1C(=O)N2C(C(=O)O)=C(CSc3nnnn3C)CS[C@H]12)c1csc(N)n1 [Cefmenoxime] | 32 | 6.18 | 6.33 | 6.28 | 6.82 | 7.59 | 6.32 | 48 |  | 
CO/N=C(\C(=O)N[C@@H]1C(=O)N2C(C(=O)O)=CCS[C@H]12)c1csc(N)n1 [Ceftizoxime] |  |  |  |  | 6.94 | 6.83 | 7.03 | 49 |  | 
